This data set can be described thus: Minimum film formation temperature (MFFT) of AquaCoat ECD-30 suspensions, MFFT-bar model 90. It is filed as physicochemical. Conditions: added at 9% by weight based on ethylcellulose solids. On the procedure:
The MFFT of such suspensions was tested with MFFT-bar model 90. The MFFT bar was preset and the desired temperature range was selected depending on predicted MFFT value. Ranges 3 (5° C. to 18° C.), 4 (15° C.-33° C.) or range 5 (23° C. to 50° C.) were used in this study. The formulation was applied using a 400 micron cube applicator from warm side to cold side, and the MFFT value was read after the film was formed.
Such compounds were added at a rate of 9% by weight (based on weight of ethylcellulose solids). The compounds evaluated were PGDL (propylene glycol dilaurate; HLB 2)), GMC (glyceryl monocaprylate, HLB 8.3), GML (glyceryl monooleate, HLB 2.8) and TGDS (triglycerol diisosterarate HLB 10-13). […] Sticky residue was found in the formulation even after mixing for extended time. The film on the MFFT bar was not smooth or transparent.

`CCCCCCCC(=O)OCC(O)CO` (stereo not drawn) [GMC, glyceryl monocaprylate]: the “Compatibility with the formulation” value is reported as “didn't have good compatibility with the formulation”.
`CCCCCCCCCCCC(=O)OCC(C)OC(=O)CCCCCCCCCCC` (stereo not drawn) [PGDL, propylene glycol dilaurate]: the “Effect on MFFT of the formulation” value was “didn't effectively decrease the MFFT”.
Consider triglycerol diisosterarate [TGDS], for which the “Compatibility with the formulation” value is on record as “didn't have good compatibility with the formulation”.

The values above are taken from patent US20230072225A1, “CONTROLLED RELEASE COMPOSITION AND METHOD” (DUPONT NUTRITION USA, INC., priority 2014, published 2023).
